Measured values reported in ChEMBL document CHEMBL3580555, “Design, Synthesis, and Biological Evaluation of Novel Imidazo[1,2-a]pyridine Derivatives as Potent c-Met Inhibitors” (ACS Med Chem Lett, 2015).
Values belong to the compound of their own block, whether it stands above or below them. Calls of active or inactive are those of the source. The rule behind the calls is not given here.

Tests used:
[1] = biological target: Hepatocyte growth factor receptor (Homo sapiens) (UniProt P08581); assay: Inhibition of C-Met (unknown origin) using polu (Glu,Tyr)4:1 substrate at 100 uM after 30 mins incubation by multi-well spectrophotometry
Sequence of Hepatocyte growth factor receptor (Homo sapiens) (P08581 whole entry): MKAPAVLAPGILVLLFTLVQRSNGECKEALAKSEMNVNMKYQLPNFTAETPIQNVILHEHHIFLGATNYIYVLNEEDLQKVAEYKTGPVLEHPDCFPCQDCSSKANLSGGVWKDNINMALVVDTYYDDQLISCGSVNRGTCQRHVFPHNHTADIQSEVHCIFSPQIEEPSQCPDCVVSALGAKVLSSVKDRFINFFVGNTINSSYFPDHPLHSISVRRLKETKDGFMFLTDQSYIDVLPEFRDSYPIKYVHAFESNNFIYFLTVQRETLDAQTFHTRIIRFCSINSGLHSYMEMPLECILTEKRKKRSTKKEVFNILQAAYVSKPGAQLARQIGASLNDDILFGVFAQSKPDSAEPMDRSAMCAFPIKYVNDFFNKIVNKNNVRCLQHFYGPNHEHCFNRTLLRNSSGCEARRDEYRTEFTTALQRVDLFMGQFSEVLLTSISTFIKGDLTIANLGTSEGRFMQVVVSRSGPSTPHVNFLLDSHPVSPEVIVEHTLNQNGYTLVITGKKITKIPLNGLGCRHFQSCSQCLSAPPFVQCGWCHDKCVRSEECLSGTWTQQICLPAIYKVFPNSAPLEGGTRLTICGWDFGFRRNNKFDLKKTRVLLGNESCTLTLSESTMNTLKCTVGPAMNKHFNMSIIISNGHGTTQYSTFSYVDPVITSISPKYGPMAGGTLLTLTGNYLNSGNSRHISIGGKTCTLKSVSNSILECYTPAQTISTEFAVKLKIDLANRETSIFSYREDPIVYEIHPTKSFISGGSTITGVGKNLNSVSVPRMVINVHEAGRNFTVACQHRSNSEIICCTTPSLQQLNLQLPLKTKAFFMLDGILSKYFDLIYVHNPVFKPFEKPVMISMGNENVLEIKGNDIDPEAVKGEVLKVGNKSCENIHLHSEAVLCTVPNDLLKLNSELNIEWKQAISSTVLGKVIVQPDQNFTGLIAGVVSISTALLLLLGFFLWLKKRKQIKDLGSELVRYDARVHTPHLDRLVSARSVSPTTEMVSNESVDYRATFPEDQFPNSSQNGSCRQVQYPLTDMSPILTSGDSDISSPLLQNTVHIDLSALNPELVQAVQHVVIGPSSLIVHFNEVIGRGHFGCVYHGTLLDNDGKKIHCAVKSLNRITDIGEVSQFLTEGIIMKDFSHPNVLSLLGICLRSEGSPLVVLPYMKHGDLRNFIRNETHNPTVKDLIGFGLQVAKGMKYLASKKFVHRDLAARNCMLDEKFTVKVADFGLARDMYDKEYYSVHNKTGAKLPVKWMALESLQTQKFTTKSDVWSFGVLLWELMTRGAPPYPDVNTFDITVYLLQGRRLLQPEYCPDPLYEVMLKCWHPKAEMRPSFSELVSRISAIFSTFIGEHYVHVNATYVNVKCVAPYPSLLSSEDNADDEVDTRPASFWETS

[2] = Antiproliferative activity against human EBC1 cells after 72 hrs; settings: EBC-1, 72 h
[3] = Antiproliferative activity against human MKN45 cells after 72 hrs; type: functional, cell-based; settings: MKN-45, 72 h
[4] = tested on: BaF3; assay: Antiproliferative activity against mouse BAF3/TPR-Met cells after 72 hrs; type: functional, cell-based; settings: BaF3, 72 h
[5] = Antiproliferative activity against human SNU5 cells after 72 hrs; type: functional, cell-based; settings: SNU-5, 72 h
[6] = biological target: Hepatocyte growth factor receptor (Homo sapiens) (UniProt P08581); assay: Inhibition of C-Met (unknown origin) using polu (Glu,Tyr)4:1 substrate at 1 uM after 30 mins incubation by multi-well spectrophotometry
[7] = tested on: Liver microsome; assay: Drug metabolism in beagle dog liver microsomes assessed as 2-Fluoro-4-(8-fluoro-3-(hydroxy(quinolin-6-yl)methyl)imidazo[1,2-a]pyridin-6-yl)-N-methylbenzamide metabolite formation after 60 mins by UPLC/Q-TOF MS/MS analysis; type: ADME, Canis lupus familiaris; settings: 1 h
[8] = tested on: NCI-H596; assay: Antiproliferative activity against human NCI-H596 cells after 72 hrs; type: functional, cell-based; settings: NCI-H596, 72 h
[9] = tested on: Liver microsome; assay: Drug metabolism in human liver microsomes assessed as 2-Fluoro-4-(8-fluoro-3-(hydroxy(quinolin-6-yl)methyl)imidazo[1,2-a]pyridin-6-yl)-N-methylbenzamide metabolite formation after 60 mins by UPLC/Q-TOF MS/MS analysis; type: ADME; settings: 1 h
[10] = tested on: MGC-803; assay: Antiproliferative activity against human MGC803 cells after 72 hrs; type: functional, cell-based; settings: MGC-803, 72 h
[11] = tested on: NCI-H1975; assay: Antiproliferative activity against human NCI-H1975 cells after 72 hrs; type: functional, cell-based; settings: NCI-H1975, 72 h
[12] = Drug metabolism in monkey liver microsomes assessed as 2-Fluoro-4-(8-fluoro-3-(hydroxy(quinolin-6-yl)methyl)imidazo[1,2-a]pyridin-6-yl)-N-methylbenzamide metabolite formation after 60 mins by UPLC/Q-TOF MS/MS analysis; type: ADME, Macaca mulatta; settings: rhesus monkey, 1 h
[13] = Antiproliferative activity against human SNU16 cells after 72 hrs; type: functional, cell-based; settings: SNU-16, 72 h
[14] = tested on: NCI-H292; assay: Antiproliferative activity against human NCI-H292 cells after 72 hrs; type: functional, cell-based; settings: NCI-H292, 72 h
[15] = Antiproliferative activity against human BGC823 cells after 72 hrs; type: functional, cell-based; settings: BGC-823, 72 h
[16] = tested on: NCI-H23; assay: Antiproliferative activity against human NCI-H23 cells after 72 hrs; type: functional, cell-based; settings: NCI-H23, 72 h
[17] = tested on: NCI-H358; assay: Antiproliferative activity against human NCI-H358 cells after 72 hrs; type: functional, cell-based; settings: NCI-H358, 72 h
[18] = tested on: NCI-H1650; assay: Antiproliferative activity against human NCI-H1650 cells after 72 hrs; type: functional, cell-based; settings: NCI-H1650, 72 h
[19] = tested on: NCI-H1299; assay: Antiproliferative activity against human NCI-H1299 cells after 72 hrs; type: functional, cell-based; settings: NCI-H1299, 72 h
[20] = tested on: NCI-H661; assay: Antiproliferative activity against human NCI-H661 cells after 72 hrs; type: functional, cell-based; settings: NCI-H661, 72 h
[21] = Antiproliferative activity against human MKN74 cells after 72 hrs; type: functional, cell-based; settings: MKN-74, 72 h
[22] = Antiproliferative activity against human SPCA4 cells after 72 hrs; type: functional, cell-based; settings: SPC-A4, 72 h
[23] = Antitumor activity against human EBC1 cells xenografted in mouse assessed as tumor growth inhibition treated at 50 mg/kg, po for 3 weeks; type: functional; settings: EBC-1, po, 504 h, read-out: INH
[24] = tested on: NCI-H226; assay: Antiproliferative activity against human NCI-H226 cells after 72 hrs; type: functional, cell-based; settings: NCI-H226, 72 h
[25] = biological target: Tyrosine-protein kinase receptor UFO (Homo sapiens, UniProt P30530); assay: Inhibition of Axl (unknown origin) using polu (Glu,Tyr)4:1 substrate after 30 mins incubation by multi-well spectrophotometry
[26] = Antiproliferative activity against human MKN1 cells after 72 hrs; type: functional, cell-based; settings: MKN-1, 72 h
[27] = Half life in Sprague-Dawley rat at 10 mg/kg, iv; type: ADME, organism-based; settings: in vivo
[28] = Drug metabolism in CD1 mouse liver microsomes assessed as 2-Fluoro-4-(8-fluoro-3-(hydroxy(quinolin-6-yl)methyl)imidazo[1,2-a]pyridin-6-yl)-N-methylbenzamide metabolite formation after 60 mins by UPLC/Q-TOF MS/MS analysis; type: ADME; settings: 1 h
[29] = Oral bioavailability in Sprague-Dawley rat at 20 mg/kg; type: ADME, organism-based; settings: in vivo
[30] = tested on: NCI-H520; assay: Antiproliferative activity against human NCI-H520 cells after 72 hrs; type: functional, cell-based; settings: NCI-H520, 72 h
[31] = tested on: Liver microsome; assay: Drug metabolism in Sprague-Dawley rat liver microsomes assessed as 2-Fluoro-4-(8-fluoro-3-(hydroxy(quinolin-6-yl)methyl)imidazo[1,2-a]pyridin-6-yl)-N-methylbenzamide metabolite formation after 60 mins by UPLC/Q-TOF MS/MS analysis; type: ADME; settings: 1 h
[32] = tested on: EBC-1; assay: Antitumor activity against human EBC1 cells xenografted in po dosed mouse assessed as tumor growth inhibition treated for 3 weeks; type: functional, organism-based
[33] = tested on: HT-29; assay: Antiproliferative activity against human HT-29 cells after 72 hrs; type: functional, cell-based; settings: HT-29, 72 h
[34] = tested on: NCI-H441; assay: Inhibition of HGF-induced human NCI-H441 cell migration at 500 nM after 24 hrs by spectrophotometry; type: functional, cell-based
[35] = tested on: A549; assay: Antiproliferative activity against human A549 cells after 72 hrs; type: functional, cell-based; settings: A549, 72 h
[36] = tested on: EBC-1; assay: Induction of cell cycle arrest in human EBC1 cells assessed as cell accumulation at G1/S phase at 1 uM after 24 hrs by FACS analysis; type: functional, cell-based
[37] = tested on: SNU1; assay: Antiproliferative activity against human SNU1 cells after 72 hrs; type: functional, cell-based; settings: SNU1, 72 h
[38] = biological target: Tyrosine-protein kinase receptor TYRO3 (Homo sapiens, UniProt Q06418); assay: Inhibition of Tyro3 (unknown origin) using polu (Glu,Tyr)4:1 substrate after 30 mins incubation by multi-well spectrophotometry
Sequence of Tyrosine-protein kinase receptor TYRO3 (Q06418 whole entry): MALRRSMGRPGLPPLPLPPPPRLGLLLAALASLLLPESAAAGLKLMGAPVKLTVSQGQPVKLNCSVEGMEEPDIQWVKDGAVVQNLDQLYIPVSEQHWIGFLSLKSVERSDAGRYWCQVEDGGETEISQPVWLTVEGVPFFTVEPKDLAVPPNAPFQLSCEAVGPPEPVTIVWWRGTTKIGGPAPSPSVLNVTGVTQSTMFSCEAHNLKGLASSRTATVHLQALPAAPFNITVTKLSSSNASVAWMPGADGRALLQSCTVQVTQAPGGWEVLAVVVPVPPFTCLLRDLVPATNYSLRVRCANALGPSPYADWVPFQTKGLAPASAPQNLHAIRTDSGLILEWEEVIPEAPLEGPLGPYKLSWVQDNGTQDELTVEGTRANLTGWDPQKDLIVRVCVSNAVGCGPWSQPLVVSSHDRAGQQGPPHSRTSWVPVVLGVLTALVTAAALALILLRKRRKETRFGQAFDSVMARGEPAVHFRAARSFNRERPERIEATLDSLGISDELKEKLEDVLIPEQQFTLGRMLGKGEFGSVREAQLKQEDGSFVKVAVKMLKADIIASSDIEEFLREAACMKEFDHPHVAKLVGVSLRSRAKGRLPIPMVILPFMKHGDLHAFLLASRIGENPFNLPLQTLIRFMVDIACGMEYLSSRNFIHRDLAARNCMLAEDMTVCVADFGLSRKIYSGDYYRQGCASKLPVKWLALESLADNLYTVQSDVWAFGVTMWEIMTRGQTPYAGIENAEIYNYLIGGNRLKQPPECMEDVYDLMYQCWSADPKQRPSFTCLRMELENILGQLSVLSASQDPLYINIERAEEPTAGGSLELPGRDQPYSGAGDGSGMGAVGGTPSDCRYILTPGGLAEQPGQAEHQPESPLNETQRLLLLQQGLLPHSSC

[39] = biological target: Voltage-gated inwardly rectifying potassium channel KCNH2 (Homo sapiens, UniProt Q12809); assay: Inhibition of human ERG channel
Sequence of Voltage-gated inwardly rectifying potassium channel KCNH2 (Q12809 whole entry): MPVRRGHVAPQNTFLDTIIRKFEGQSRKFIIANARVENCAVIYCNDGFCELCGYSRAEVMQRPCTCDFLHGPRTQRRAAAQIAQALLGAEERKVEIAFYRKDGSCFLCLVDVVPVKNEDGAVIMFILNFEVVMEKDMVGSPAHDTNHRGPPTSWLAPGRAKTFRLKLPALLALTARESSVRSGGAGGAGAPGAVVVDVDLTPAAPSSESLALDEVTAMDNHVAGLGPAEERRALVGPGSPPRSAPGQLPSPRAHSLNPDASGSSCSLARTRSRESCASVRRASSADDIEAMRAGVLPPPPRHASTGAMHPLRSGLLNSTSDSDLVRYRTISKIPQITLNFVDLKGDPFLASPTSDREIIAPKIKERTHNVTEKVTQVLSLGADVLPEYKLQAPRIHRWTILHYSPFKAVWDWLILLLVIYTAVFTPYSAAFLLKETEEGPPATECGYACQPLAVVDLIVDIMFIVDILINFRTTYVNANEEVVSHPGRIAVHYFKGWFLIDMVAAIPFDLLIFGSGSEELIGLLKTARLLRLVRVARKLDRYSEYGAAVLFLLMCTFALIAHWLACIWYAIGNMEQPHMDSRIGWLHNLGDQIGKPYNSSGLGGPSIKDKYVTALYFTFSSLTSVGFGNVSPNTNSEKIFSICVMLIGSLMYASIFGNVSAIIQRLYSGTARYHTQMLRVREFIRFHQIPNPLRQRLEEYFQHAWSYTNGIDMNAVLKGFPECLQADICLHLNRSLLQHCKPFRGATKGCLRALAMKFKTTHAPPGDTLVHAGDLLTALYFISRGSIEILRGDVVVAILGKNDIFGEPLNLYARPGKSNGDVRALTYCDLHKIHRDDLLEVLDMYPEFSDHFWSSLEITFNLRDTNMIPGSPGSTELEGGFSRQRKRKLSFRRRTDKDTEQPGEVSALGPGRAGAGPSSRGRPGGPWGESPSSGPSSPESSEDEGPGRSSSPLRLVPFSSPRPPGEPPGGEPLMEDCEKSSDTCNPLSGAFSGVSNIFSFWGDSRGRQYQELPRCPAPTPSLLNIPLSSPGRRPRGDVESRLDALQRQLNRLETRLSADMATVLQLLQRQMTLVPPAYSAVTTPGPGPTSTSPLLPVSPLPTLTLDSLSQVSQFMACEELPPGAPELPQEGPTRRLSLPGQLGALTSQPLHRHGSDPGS

[40] = Antiproliferative activity against human SGC7901 cells after 72 hrs; type: functional, cell-based; settings: SGC-7901, 72 h
[41] = Antiproliferative activity against human Calu3 cells after 72 hrs; type: functional, cell-based; settings: Calu-3, 72 h
[42] = tested on: MDCK; assay: Reduction in HGF-induced cell scattering of MDCK cells after 24 hrs by microscopy; type: functional, cell-based; settings: Canis lupus familiaris
[43] = Antitumor activity against human EBC1 cells xenografted in mouse assessed as tumor growth inhibition treated at 100 mg/kg, po for 3 weeks; type: functional; settings: EBC-1, po, 504 h
[44] = tested on: NCI-H441; assay: Inhibition of HGF-induced human NCI-H441 cell invasion at 500 nM after 24 hrs by spectrophotometry; type: functional, cell-based
[45] = tested on: EBC-1; assay: Induction of cell cycle arrest in human EBC1 cells assessed as cell accumulation at G1 phase at 1 uM after 24 hrs by FACS analysis (reference value: 52.95%); type: functional
[46] = biological target: Tyrosine-protein kinase Mer (Homo sapiens, UniProt Q12866); assay: Inhibition of Mer (unknown origin) using polu (Glu,Tyr)4:1 substrate after 30 mins incubation by multi-well spectrophotometry
Sequence of Tyrosine-protein kinase Mer (Q12866 whole entry): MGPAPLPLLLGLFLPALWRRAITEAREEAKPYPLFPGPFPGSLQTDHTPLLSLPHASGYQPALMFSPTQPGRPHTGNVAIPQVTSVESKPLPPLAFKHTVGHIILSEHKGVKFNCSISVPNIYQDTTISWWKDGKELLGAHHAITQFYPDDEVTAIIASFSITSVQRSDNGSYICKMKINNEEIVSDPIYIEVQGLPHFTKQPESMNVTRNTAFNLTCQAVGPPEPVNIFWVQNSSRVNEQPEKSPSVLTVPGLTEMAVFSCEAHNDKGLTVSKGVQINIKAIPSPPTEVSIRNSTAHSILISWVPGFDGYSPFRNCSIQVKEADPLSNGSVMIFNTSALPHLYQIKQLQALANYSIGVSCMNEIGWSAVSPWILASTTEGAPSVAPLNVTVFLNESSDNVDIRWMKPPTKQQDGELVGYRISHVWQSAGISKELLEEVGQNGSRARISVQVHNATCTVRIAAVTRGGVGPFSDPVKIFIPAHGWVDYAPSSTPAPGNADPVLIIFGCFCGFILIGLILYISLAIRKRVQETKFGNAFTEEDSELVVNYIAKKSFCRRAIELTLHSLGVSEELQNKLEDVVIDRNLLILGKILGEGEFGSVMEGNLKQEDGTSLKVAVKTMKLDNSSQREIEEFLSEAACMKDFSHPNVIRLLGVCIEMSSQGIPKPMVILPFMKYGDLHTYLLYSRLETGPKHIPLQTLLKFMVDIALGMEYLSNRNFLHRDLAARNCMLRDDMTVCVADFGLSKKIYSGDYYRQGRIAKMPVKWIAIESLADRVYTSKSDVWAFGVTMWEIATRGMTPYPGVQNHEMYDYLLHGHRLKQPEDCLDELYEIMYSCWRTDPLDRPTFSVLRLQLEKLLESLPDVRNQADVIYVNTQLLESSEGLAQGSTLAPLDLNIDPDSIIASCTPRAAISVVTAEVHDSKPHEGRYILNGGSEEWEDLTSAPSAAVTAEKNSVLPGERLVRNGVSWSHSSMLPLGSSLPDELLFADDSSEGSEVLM

[47] = tested on: AGS; assay: Antiproliferative activity against human AGS cells after 72 hrs; type: functional, cell-based
[48] = Antiproliferative activity against human SPCA1 cells after 72 hrs; type: functional, cell-based; settings: SPCA1, 72 h
[49] = tested on: Mus musculus; assay: Toxicity in human EBC1 cells xenografted in mouse assessed as weight losses treated at 50 to 100 mg/kg, po for 3 weeks; type: organism-based; settings: in vivo, 504 h
[50] = tested on: Liver microsome; assay: Drug formation in Sprague-Dawley rat liver microsomes treated with 2-Fluoro-4-(8-fluoro-3-(quinolin-6-ylmethyl)imidazo[1,2-a]pyridin-6-yl)-N-methylbenzamide after 60 mins by UPLC/Q-TOF MS/MS analysis; type: ADME; settings: 1 h

inhibition [1]: 34.5%
SMILES: Cn1cc(-c2cc(C#N)c3ncc(Cc4ccc5ncccc5c4)n3c2)cn1

SMILES: Cn1cc(-c2cc(F)c3ncc(Cc4ccc5ncccc5c4)n3c2)cn1
IC50 [2]: 270 nM

SMILES: CNC(=O)c1cc(-c2cc(F)c3ncc(Cc4ccc5ncccc5c4)n3c2)ccc1F
IC50 [2]: 246 nM

IC50 [4]: 127 nM
SMILES: C[C@@H](Oc1cc(-c2cnn(C3CCNCC3)c2)cnc1N)c1c(Cl)ccc(F)c1Cl [CRIZOTINIB]
IC50 [3]: 38.1 nM | IC50 [2]: 21.8 nM | IC50 [5]: 20.4 nM

SMILES: O=C(NC1CCOCC1)c1ccc(-c2cc(F)c3ncc(Cc4ccc5ncccc5c4)n3c2)cc1F
IC50 [2]: 70.5 nM

SMILES: CNC(=O)c1cccc(-c2cc(F)c3ncc(Cc4ccc5ncccc5c4)n3c2)c1
IC50 [2]: 400 nM

SMILES: CNC(=O)c1cc(-c2cc(F)c3ncc(Cc4ccc5ncccc5c4)n3c2)ccc1Cl
IC50 [2]: 946 nM

inhibition [6]: 9.6%
SMILES: Cn1cc(-c2cc(C(F)(F)F)c3ncc(Cc4ccc5ncccc5c4)n3c2)cn1

Drug metabolism [7]: metabolite_detected | IC50 [8]: > 50000 nM | Drug metabolism [9]: metabolite_detected | IC50 [10]: > 50000 nM | IC50 [11]: > 50000 nM | Drug metabolism [12]: metabolite_detected | IC50 [14]: > 50000 nM | IC50 [16]: > 50000 nM | IC50 [17]: > 50000 nM | IC50 [18]: > 50000 nM | IC50 [19]: > 50000 nM | IC50 [20]: > 50000 nM | IC50 [4]: 203 nM | IC50 [24]: > 50000 nM | IC50 [25]: > 10000 nM | half-life [27]: 1.17 h | Drug metabolism [28]: metabolite_detected | bioavailability [29]: 29.4% | IC50 [30]: > 50000 nM | Drug metabolism [31]: metabolite_notdetected | IC50 [33]: > 50000 nM | IC50 [35]: > 50000 nM | IC50 [37]: > 50000 nM | IC50 [38]: > 10000 nM | IC50 [46]: > 10000 nM | IC50 [47]: > 50000 nM | Drug metabolism [50]: metabolite_notdetected
SMILES: CNC(=O)c1ccc(-c2cc(F)c3ncc(Cc4ccc5ncccc5c4)n3c2)cc1F
IC50 [3]: 90.9 nM | IC50 [13]: > 50000 nM | IC50 [15]: > 50000 nM | IC50 [21]: > 50000 nM | IC50 [22]: > 50000 nM | inhibition in vivo at 50 mg/kg [23]: 62.9% | IC50 [2]: 45 nM | IC50 [26]: > 50000 nM | TGI [32]: Dose-dependent effect | inhibition [34]: Active | IC50 [5]: 70.2 nM | Activity [36]: Active | IC50 [39]: 93600 nM | IC50 [40]: > 50000 nM | IC50 [41]: > 50000 nM | inhibition [42]: Dose-dependent effect | inhibition in vivo at 100 mg/kg [43]: 75% | inhibition [44]: Active | Activity [45]: 81.84% | IC50 [48]: > 50000 nM | Activity [49]: Non-toxic

SMILES: O=C(NCc1cc(F)cc(F)c1)c1ccc(-c2cc(F)c3ncc(Cc4ccc5ncccc5c4)n3c2)cc1F
IC50 [2]: 53.6 nM

SMILES: N#Cc1ccc(-c2cc(F)c3ncc(Cc4ccc5ncccc5c4)n3c2)cn1
IC50 [2]: 188 nM

SMILES: O=C(NCCCN1CCCC1)c1ccc(-c2cc(F)c3ncc(Cc4ccc5ncccc5c4)n3c2)cc1F
IC50 [2]: 161 nM

SMILES: O=C(c1ccc(-c2cc(F)c3ncc(Cc4ccc5ncccc5c4)n3c2)cc1F)N1CCC2(COC2)C1
IC50 [2]: 406 nM

SMILES: N#Cc1ccc(-c2cc(F)c3ncc(Cc4ccc5ncccc5c4)n3c2)cc1F
IC50 [2]: 145 nM

SMILES: O=C(NCC1CCCCN1)c1ccc(-c2cc(F)c3ncc(Cc4ccc5ncccc5c4)n3c2)cc1F (configuration not stated)
IC50 [2]: 277 nM

SMILES: Fc1cc(-c2ccc(N3CCOCC3)nc2)cn2c(Cc3ccc4ncccc4c3)cnc12
IC50 [2]: 225 nM

SMILES: CN(C)CCNC(=O)c1ccc(-c2cc(F)c3ncc(Cc4ccc5ncccc5c4)n3c2)cc1F
IC50 [2]: 49 nM
